For experiment [1], the target named is T1, recombinant human FLAP protein (Homo sapiens, UniProt P20292).
T1 construct: made in house; host or cells: Sf9 insect cells (100,000xg membrane fraction used)
T1 sequence (P20292 1-161): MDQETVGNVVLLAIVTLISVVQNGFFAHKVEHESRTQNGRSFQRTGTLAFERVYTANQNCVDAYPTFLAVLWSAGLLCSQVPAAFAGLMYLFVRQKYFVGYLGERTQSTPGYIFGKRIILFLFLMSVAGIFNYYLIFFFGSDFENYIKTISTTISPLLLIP
Put plainly: FLAP binding assay (Scintillation Proximity Assay, displacement of [125I]L-691,831). Conditions: read-out: FLAP SPA IC50. The protocol:
Compounds are assessed for the ability to bind to FLAP in a binding assay that measures compound-specific displacement of an iodinated (^125I) FLAP inhibitor via a Scintillation Proximity Assay format (adapted from S. Charleson et al., Mol. Pharmacol., 1992, 41, 873-879).
Cell pellets produced from sf9 insect cells expressing recombinant human FLAP protein are resuspended in buffer A [15 mM Tris-HCl (pH 7.5), 2 mM MgCl2, 0.3 mM EDTA, 1 mM PMSF]. The cells are lysed with a Dounce homogenizer and the material is centrifuged at 10,000×g for 10 minutes. The supernatant is then collected and centrifuged at 100,000×g for 60 minutes. To prepare membrane protein for an assay, an aliquot of the 100,000×g pellet is resuspended in 1 ml of buffer A, Dounce homogenized, and finally subjected to polytron mixing (30 seconds). Membrane protein (25 μl, 5 μg) is mixed with WGA SPA beads (Amersham) and stirred for 1 h. […] (final concentrations: beads, 200 μg/well; protein, 5 μg/well; [^125I] probe, 0.08 nM/well (17 nCi/well). The plates are shaken for 2 h before reading on a Microbeta plate reader. Non-specific binding is determined by the addition of 10 μM cold L-691,831 compound.

Experiment [2] deals with synthesis of LTB4 in human whole blood. Put plainly: human whole blood LTB4 production inhibition assay. It counts as cell-based. Conditions: calcimycin stimulated, read-out: hWB LTB4 IC50. As to the method: Compounds are additionally tested in a human whole blood assay to determine their ability to inhibit the synthesis of LTB4 in a cellular system. Compounds are combined with heparinized human whole blood and incubated for 15 minutes at 37° C. Calcimycin (20 μM final, prepared in phosphate-buffered saline, pH 7.4) is then added and the mixture is incubated for another 30 minutes at 37° C. The samples are centrifuged for 5 min at low speed (1500×g) and the plasma layer is removed. Plasma LTB4 concentrations are then measured using an antibody-based homogenous time-resolved fluorescence method (CisBio, Bedford, Mass.).

For orientation: IC50 means the concentration that gives 50% inhibition. Consider `COCCn1cc(-c2nc(C(C)(c3ccc(-c4cnc(N)nc4)nc3)C(C)C)no2)cn1` (stereo not shown) [Example 8, 5-[5-(2-{5-[1-(2-methoxyethyl)-1H-pyrazol-4-yl]-1,2,4-oxadiazol-3-yl}-3-methylbutan-2-yl)pyridin-2-yl]pyrimidin-2-amine], for which the results for the IC50 in experiment [1] and in experiment [2] were 6.3 nM and 68 nM, respectively.

Consider `CC(C)C(C)(c1ccc(-c2cnc(N)nc2)nc1)c1noc(-c2cnn(C3COC3)c2)n1` (stereo not shown) [Example 9, 5-[5-(3-methyl-2-{5-[1-(oxetan-3-yl)-1H-pyrazol-4-yl]-1,2,4-oxadiazol-3-yl}butan-2-yl)pyridin-2-yl]pyrimidin-2-amine], for which the 50% inhibitory concentration (IC50) in experiment [1] amounted to 5.9 nM; in experiment [2], 25 nM.

In the case of `COCCNc1cnc(-c2nc(C(C)(c3ccc(-c4cnc(N)nc4)nc3)C(C)C)no2)cn1` (stereo not shown) [Example 10, 5-{5-[2-(5-{5-[(2-methoxyethyl)amino]pyrazin-2-yl}-1,2,4-oxadiazol-3-yl)-3-methylbutan-2-yl]pyridin-2-yl}pyrimidin-2-amine], the IC50 came to 4.9 nM in experiment [1] and 60 nM in experiment [2].

Turning to `CC(C)C(C)(c1ccc(-c2cnc(N)nc2)nc1)c1noc(-c2cnn3cccnc23)n1` (stereo not shown) [Example 11, 5-(5-{3-methyl-2-[5-(pyrazolo[1,5-a]pyrimidin-3-yl)-1,2,4-oxadiazol-3-yl]butan-2-yl}pyridin-2-yl)pyrimidin-2-amine], the IC50 in experiment [1] was 2.9 nM; in experiment [2], 40 nM.

Take `CCNc1cnc(-c2nc(C(C)(c3ccc(-c4cnc(N)nc4)nc3)C(C)C)no2)cn1` (stereo not shown) [Example 12, 5-[5-(2-{5-[5-(ethylamino)pyrazin-2-yl]-1,2,4-oxadiazol-3-yl}-3-methylbutan-2-yl)pyridin-2-yl]pyrimidin-2-amine]: the IC50 in experiment [1] worked out at 3.6 nM; in experiment [2], 55 nM.

As for `CC(C)C(C)(c1ccc(-c2cnc(N)nc2)nc1)c1noc(-c2cnc(N3CCNCC3)cn2)n1` (stereo not shown) [Example 13, 5-[5-(3-methyl-2-{5-[5-(piperazin-1-yl)pyrazin-2-yl]-1,2,4-oxadiazol-3-yl}butan-2-yl)pyridin-2-yl]pyrimidin-2-amine], the results for the IC50 in experiment [1] and in experiment [2] were 10.9 nM and 490 nM, respectively.

For `CC(C)C(C)(c1ccc(-c2cnc(N)nc2)nc1)c1noc(-c2cnn(CC(F)F)c2)n1` (stereo not shown) [Example 14, 5-[5-(2-{5-[1-(2,2-difluoroethyl)-1H-pyrazol-4-yl]-1,2,4-oxadiazol-3-yl}-3-methylbutan-2-yl)pyridin-2-yl]pyrimidin-2-amine], the IC50 in experiment [1] was found to be 6.5 nM; in experiment [2] it was 45 nM.

For `CNc1cnc(-c2nc(C(C)(c3ccc(-c4cnc(N)nc4)nc3)C(C)C)no2)cn1` (stereo not shown) [Example 15, 5-[5-(3-methyl-2-{5-[5-(methylamino)pyrazin-2-yl]-1,2,4-oxadiazol-3-yl}butan-2-yl)pyridin-2-yl]pyrimidin-2-amine], the IC50 in experiment [1] worked out at 2.3 nM; in experiment [2], 75 nM.

For `CC(C)Nc1cnc(-c2nc(C(C)(c3ccc(-c4cnc(N)nc4)nc3)C(C)C)no2)cn1` (stereo not shown) [Example 16, 5-[5-(3-methyl-2-{5-[5-(propan-2-ylamino)pyrazin-2-yl]-1,2,4-oxadiazol-3-yl}butan-2-yl)pyridin-2-yl]pyrimidin-2-amine], the IC50 amounted to 2.3 nM in experiment [1] and 65 nM in experiment [2].

On to `CC(C)C(C)(c1ccc(-c2cnc(N)nc2)nc1)c1noc(-c2cnn(CCF)c2)n1` (stereo not shown) [Example 17, 5-[5-(2-{5-[1-(2-fluoroethyl)-1H-pyrazol-4-yl]-1,2,4-oxadiazol-3-yl}-3-methylbutan-2-yl)pyridin-2-yl]pyrimidin-2-amine], for which the IC50 in experiment [1] was determined as 4.5 nM; in experiment [2], 53 nM.

With `COCCN(C)c1cnc(-c2nc(C(C)(c3ccc(-c4cnc(N)nc4)nc3)C(C)C)no2)cn1` (stereo not shown) [Example 18, 5-{5-[2-(5-{5-[(2-methoxyethyl)(methyl)amino]pyrazin-2-yl}-1,2,4-oxadiazol-3-yl)-3-methylbutan-2-yl]pyridin-2-yl}pyrimidin-2-amine], the IC50 in experiment [1] was 2.7 nM; in experiment [2], 83 nM.

For `CC(C)C(C)(c1ccc(-c2cnc(N)nc2)nc1)c1noc(-c2cnc(NC[C@@H](C)O)cn2)n1` (stereo partly drawn) [Example 19, (2R)-1-{[5-(3-{2-[6-(2-aminopyrimidin-5-yl)pyridin-3-yl]-3-methylbutan-2-yl}-1,2,4-oxadiazol-5-yl)pyrazin-2-yl]amino}propan-2-ol], the IC50 amounted to 4.8 nM in experiment [1] and 140 nM in experiment [2].

`CC(C)C(C)(c1ccc(-c2cnc(N)nc2)nc1)c1noc(-c2cnc(NC(C)(C)CO)cn2)n1` (stereo not shown) [Example 20, 2-{[5-(3-{2-[6-(2-aminopyrimidin-5-yl)pyridin-3-yl]-3-methylbutan-2-yl}-1,2,4-oxadiazol-5-yl)pyrazin-2-yl]amino}-2-methylpropan-1-ol]: the results for the IC50 in experiment [1] and in experiment [2] were 4 nM and 140 nM, respectively.

In the case of `CC(C)C(C)(c1ccc(-c2cnc(N)nc2)nc1)c1noc(-c2cn(C)cn2)n1` (stereo not shown) [Example 21, 5-(5-{3-methyl-2-[5-(1-methyl-1H-imidazol-4-yl)-1,2,4-oxadiazol-3-yl]butan-2-yl}pyridin-2-yl)pyrimidin-2-amine], the IC50 in experiment [1] was determined as 51.2 nM; in experiment [2], 570 nM.

Turning to `CC(C)C(C)(c1ccc(-c2cnc(N)nc2)nc1)c1noc(-c2cnc(NC[C@H](C)O)cn2)n1` (stereo partly drawn) [Example 22, (2S)-1-{[5-(3-{2-[6-(2-aminopyrimidin-5-yl)pyridin-3-yl]-3-methylbutan-2-yl}-1,2,4-oxadiazol-5-yl)pyrazin-2-yl]amino}propan-2-ol], the values for the IC50 in experiment [1] and in experiment [2] were 3.6 nM and 140 nM, respectively.

Consider `COCCn1cc(-c2nc([C@@](C)(c3ccc(-c4cnc(N)nc4)nc3)C(C)C)no2)cn1` [Example 23, 5-{5-[(2R)-2-{5-[1-(2-methoxyethyl)-1H-pyrazol-4-yl]-1,2,4-oxadiazol-3-yl}-3-methylbutan-2-yl]pyridin-2-yl}pyrimidin-2-amine], for which the results for the concentration for half-maximal inhibition (IC50) in experiment [1] and in experiment [2] were 3.9 nM and 39 nM, respectively.

Consider `COCCn1cc(-c2nc([C@](C)(c3ccc(-c4cnc(N)nc4)nc3)C(C)C)no2)cn1` [Example 24, 5-{5-[(2S)-2-{5-[1-(2-methoxyethyl)-1H-pyrazol-4-yl]-1,2,4-oxadiazol-3-yl}-3-methylbutan-2-yl]pyridin-2-yl}pyrimidin-2-amine], for which the IC50 in experiment [1] came to 170 nM; in experiment [2], 990 nM.

`CC(C)C(C)(c1ccc(-c2cnc(N)nc2)nc1)c1noc(NCCO)n1` (stereo not shown) [Example 25, 2-[(3-{2-[6-(2-aminopyrimidin-5-yl)pyridin-3-yl]-3-methylbutan-2-yl}-1,2,4-oxadiazol-5-yl)amino]ethanol]: the values for the IC50 in experiment [1] and in experiment [2] were 520 nM and over 5000 nM, respectively.

On to `CC(C)C(C)(c1ccc(-c2cnc(N)nc2)nc1)c1noc(N2CCNCC2)n1` (stereo not shown) [Example 26, 5-(5-{3-methyl-2-[5-(piperazin-1-yl)-1,2,4-oxadiazol-3-yl]butan-2-yl}pyridin-2-yl)pyrimidin-2-amine], for which the values for the 50% inhibitory concentration (IC50) in experiment [1] and in experiment [2] were 400 nM and 3900 nM, respectively.

For the compound `COCCNc1ccc(-c2nc(C(C)(c3ccc(-c4cnc(N)nc4)nc3)C(C)C)no2)nn1` (stereo not shown) [Example 27, 6-(3-{2-[6-(2-aminopyrimidin-5-yl)pyridin-3-yl]-3-methylbutan-2-yl}-1,2,4-oxadiazol-5-yl)-N-(2-methoxyethyl)pyridazin-3-amine], the values for the IC50 in experiment [1] and in experiment [2] were 7.5 nM and 71 nM, respectively.

Values taken from patent publication US8580825B2, “Oxadiazole inhibitors of leukotriene production” (Boehringer Ingelheim International GmbH, priority 2010, dated 2013).
